The values that follow come from US20230322761A1, “DEGRADATION OF BRUTON'S TYROSINE KINASE (BTK) BY CONJUGATION OF BTK INHIBITORS WITH E3 LIGASE LIGAND AND METHODS OF USE” (BEIGENE, LTD., priority 2020, published 2023).

As a reminder, the DC50 is the concentration at which degradation of the target reaches its halfway point. A lower DC50 goes with degradation at low concentration.

T1 sequence (Q06187 whole entry): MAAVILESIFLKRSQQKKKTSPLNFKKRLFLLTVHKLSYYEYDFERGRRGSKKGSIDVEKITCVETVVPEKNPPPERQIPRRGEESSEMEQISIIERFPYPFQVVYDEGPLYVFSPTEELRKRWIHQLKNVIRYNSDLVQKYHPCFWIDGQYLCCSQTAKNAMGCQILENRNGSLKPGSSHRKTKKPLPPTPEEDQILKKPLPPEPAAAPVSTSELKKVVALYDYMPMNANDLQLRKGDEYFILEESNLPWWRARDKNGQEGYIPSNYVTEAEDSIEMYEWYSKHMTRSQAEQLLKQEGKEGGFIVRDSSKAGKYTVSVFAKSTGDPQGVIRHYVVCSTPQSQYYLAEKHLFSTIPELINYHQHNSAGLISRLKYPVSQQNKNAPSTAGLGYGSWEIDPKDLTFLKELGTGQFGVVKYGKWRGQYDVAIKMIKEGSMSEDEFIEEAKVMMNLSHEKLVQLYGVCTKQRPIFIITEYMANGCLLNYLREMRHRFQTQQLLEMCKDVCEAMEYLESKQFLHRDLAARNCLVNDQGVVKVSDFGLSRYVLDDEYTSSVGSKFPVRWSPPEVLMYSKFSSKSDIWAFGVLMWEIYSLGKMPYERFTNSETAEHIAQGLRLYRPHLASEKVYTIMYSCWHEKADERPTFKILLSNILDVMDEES

This assay has as its target T1, BTK (Homo sapiens, UniProt Q06187).
T1 construct: endogenous in cells; host or cells: TMD-8 cells
Description: BTK degradation in TMD-8 cells, HTRF assay after 6 h treatment. Format: cell-based. The following applies: IC50 (DC50) of BTK degradation. In short, it runs like this:
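Remaining BTK was quantified by HTRF in lysates of TMD-8 cells after 6 h exposure to an 8-point, 6-fold compound series (500× stocks in DMSO starting at 1 mM; 0.2% DMSO). Lysis 30 min, antibodies overnight at room temperature, ratio read at 665/620 nm; DC50 fitted with a four-parameter logistic equation.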
The molecule `Cc1cc(-c2n[nH]c3ncc(-c4ccc(N5CCN(CC6CCN(c7ccc(N8CCC(=O)NC8=O)cc7)CC6)CC5)cc4)cc23)c(F)cc1CNC(=O)c1noc(C(C)(C)C)n1` [Example 100, 5-(tert-butyl)-N-(4-(5-(4-(4-((1-(4-(2,4-dioxotetrahydropyrimidin-1(2H)-yl)phenyl)piperidin-4-yl)methyl)piperazin-1-yl)phenyl)-1H-pyrazolo[3,4-b]pyridin-3-yl)-5-fluoro-2-methylbenzyl)-1,2,4-oxadiazole-3-carboxamide] returned a DC50 of 10.2 nM.

In turn, `Cc1cc(-c2n[nH]c3ncc(-c4ccc(N5CCN(CCc6ccc(C7CCC(=O)NC7=O)cn6)CC5)cc4)cc23)ccc1[C@@H](C)NC(=O)c1noc(C(C)(C)C)n1` (stereo partly drawn) [Example 101, 5-(tert-butyl)-N-((1R)-1-(4-(5-(4-(4-(2-(5-(2,6-dioxopiperidin-3-yl)pyridin-2-yl)ethyl)piperazin-1-yl)phenyl)-1H-pyrazolo[3,4-b]pyridin-3-yl)-2-methylphenyl)ethyl)-1,2,4-oxadiazole-3-carboxamide] returned a DC50 of 0.959 nM.

On to `Cc1cc(-c2n[nH]c3ncc(-c4ccc(N5CCN(CC6CCN(c7ccc(N8CCC(=O)NC8=O)cc7)CC6)CC5)c(C)c4)cc23)ccc1[C@@H](C)NC(=O)c1noc(C(C)(C)C)n1` [Example 102, (R)-5-(tert-butyl)-N-(1-(4-(5-(4-(4-((1-(4-(2,4-dioxotetrahydropyrimidin-1(2H)-yl)phenyl)piperidin-4-yl)methyl)piperazin-1-yl)-3-methylphenyl)-1H-pyrazolo[3,4-b]pyridin-3-yl)-2-methylphenyl)ethyl)-1,2,4-oxadiazole-3-carboxamide], for which half-maximal degradation (DC50) was put at 9.72 nM.

`Cc1cc(-c2n[nH]c3ncc(-c4ccc(N5CCN(CCc6ccc(C7CCC(=O)NC7=O)cc6)CC5)cn4)cc23)ccc1CNC(=O)c1noc(C(C)(C)C)n1` (stereo not drawn) [Example 103, 5-(tert-butyl)-N-(4-(5-(5-(4-(4-(2,6-dioxopiperidin-3-yl)phenethyl)piperazin-1-yl)pyridin-2-yl)-1H-pyrazolo[3,4-b]pyridin-3-yl)-2-methylbenzyl)-1,2,4-oxadiazole-3-carboxamide]: the DC50 is 1.31 nM.

For the molecule `Cc1cc(-c2n[nH]c3ncc(-c4ccc(N5CCN(CCC6CCN(c7ccc(N8CCC(=O)NC8=O)c(Cl)c7)CC6)CC5)cc4)cc23)ccc1[C@@H](C)NC(=O)c1ccc(C(C)(C)O)cc1F` [Example 104, (R)—N-(1-(4-(5-(4-(4-(2-(1-(3-chloro-4-(2,4-dioxotetrahydropyrimidin-1(2H)-yl)phenyl)piperidin-4-yl)ethyl)piperazin-1-yl)phenyl)-1H-pyrazolo[3,4-b]pyridin-3-yl)-2-methylphenyl)ethyl)-2-fluoro-4-(2-hydroxypropan-2-yl)benzamide], the DC50 is more than 2000 nM.

`Cc1cc(-c2n[nH]c3ncc(-c4ccc(C5CCN(CC6CCN(c7ccc(N8CCC(=O)NC8=O)c(C)c7)CC6)CC5)nc4)cc23)ccc1CNC(=O)c1nc(C(C)(C)C)no1` [Example 105, 3-(tert-butyl)-N-(4-(5-(6-(1-((1-(4-(2,4-dioxotetrahydropyrimidin-1(2H)-yl)-3-methylphenyl)piperidin-4-yl)methyl)piperidin-4-yl)pyridin-3-yl)-1H-pyrazolo[3,4-b]pyridin-3-yl)-2-methylbenzyl)-1,2,4-oxadiazole-5-carboxamide] displayed a DC50 of 3.55 nM.

On to `Cc1cc(-c2n[nH]c3ncc(-c4ccc(N5CCN(CCc6ccc(C7CCC(=O)NC7=O)cc6)CC5)cc4)cc23)ccc1CNC(=O)c1noc(C(C)(C)C)n1` (stereo not drawn) [Example 107, 5-(tert-butyl)-N-(4-(5-(4-(4-(4-(2,6-dioxopiperidin-3-yl)phenethyl)piperazin-1-yl)phenyl)-1H-pyrazolo[3,4-b]pyridin-3-yl)-2-methylbenzyl)-1,2,4-oxadiazole-3-carboxamide], for which the half-maximal degradation concentration (DC50) is 1.89 nM.

Turning to `Cc1cc(-c2n[nH]c3ncc(-c4ccc(N5CCN(CCc6ccc(C7CCC(=O)NC7=O)cc6)CC5)cc4)cc23)ccc1CNC(=O)c1cn(C(C)(C)C)nn1` (stereo not drawn) [Example 108, 1-(tert-butyl)-N-(4-(5-(4-(4-(4-(2,6-dioxopiperidin-3-yl)phenethyl)piperazin-1-yl)phenyl)-1H-pyrazolo[3,4-b]pyridin-3-yl)-2-methylbenzyl)-1H-1,2,3-triazole-4-carboxamide], the DC50 is 4.13 nM.

As to `Cc1cc(-c2n[nH]c3ncc(-c4ccc(N5CCN(CC6CCN(c7ccc(N8CCC(=O)NC8=O)cc7)CC6)CC5)cc4)cc23)ccc1[C@@H](C)NC(=O)c1noc(C2(C)CC2)n1` [Example 109, (R)—N-(1-(4-(5-(4-(4-((1-(4-(2,4-dioxotetrahydropyrimidin-1(2H)-yl)phenyl)piperidin-4-yl)methyl)piperazin-1-yl)phenyl)-1H-pyrazolo[3,4-b]pyridin-3-yl)-2-methylphenyl)ethyl)-5-(1-methylcyclopropyl)-1,2,4-oxadiazole-3-carboxamide], the DC50 stood at 13.3 nM.

As for `Cc1cc(-c2n[nH]c3ncc(-c4ccc(N5CCN(CCc6ccc([C@H]7CCC(=O)NC7=O)cc6)CC5)cc4)cc23)ccc1[C@@H](C)NC(=O)c1noc(C(C)(C)C)n1` [Example 111, 5-(tert-butyl)-N—((R)-1-(4-(5-(4-(4-(4-((R)-2,6-dioxopiperidin-3-yl)phenethyl)piperazin-1-yl)phenyl)-1H-pyrazolo[3,4-b]pyridin-3-yl)-2-methylphenyl)ethyl)-1,2,4-oxadiazole-3-carboxamide], the DC50 was 4.93 nM.

Molecule `Cc1cc(-c2n[nH]c3ncc(-c4ccc(N5CCN(CCc6ccc([C@@H]7CCC(=O)NC7=O)cc6)CC5)cc4)cc23)ccc1[C@@H](C)NC(=O)c1noc(C(C)(C)C)n1` [Example 112, 5-(tert-butyl)-N—((R)-1-(4-(5-(4-(4-(4-((S)-2,6-dioxopiperidin-3-yl)phenethyl)piperazin-1-yl)phenyl)-1H-pyrazolo[3,4-b]pyridin-3-yl)-2-methylphenyl)ethyl)-1,2,4-oxadiazole-3-carboxamide] returned a DC50 of 1.79 nM.

The molecule `Cc1cc(-c2n[nH]c3ncc(-c4ccc(N5CCN(CCc6ccc([C@H]7CCC(=O)NC7=O)c(F)c6)CC5)cc4)cc23)ccc1[C@@H](C)NC(=O)c1noc(C(C)(C)C)n1` [Example 113, 5-(tert-butyl)-N—((R)-1-(4-(5-(4-(4-(4-((R)-2,6-dioxopiperidin-3-yl)-3-fluorophenethyl)piperazin-1-yl)phenyl)-1H-pyrazolo[3,4-b]pyridin-3-yl)-2-methylphenyl)ethyl)-1,2,4-oxadiazole-3-carboxamide] gave a DC50 of 17 nM.

`Cc1cc(-c2n[nH]c3ncc(-c4ccc(N5CCN(CCc6ccc([C@@H]7CCC(=O)NC7=O)c(F)c6)CC5)cc4)cc23)ccc1[C@@H](C)NC(=O)c1noc(C(C)(C)C)n1` [Example 114, 5-(tert-butyl)-N—((R)-1-(4-(5-(4-(4-(4-((S)-2,6-dioxopiperidin-3-yl)-3-fluorophenethyl)piperazin-1-yl)phenyl)-1H-pyrazolo[3,4-b]pyridin-3-yl)-2-methylphenyl)ethyl)-1,2,4-oxadiazole-3-carboxamide] returned a DC50 of 1.56 nM.

Consider `Cc1cc(-c2n[nH]c3ncc(-c4ccc(N5CCN(CC6CCN(c7ccc(N8CCC(=O)NC8=O)c(Cl)c7)CC6)CC5)cc4)cc23)ccc1[C@@H](C)NC(=O)c1noc(C(C)(C)C)n1` [Example 115, (R)-5-(tert-butyl)-N-(1-(4-(5-(4-(4-((1-(3-chloro-4-(2,4-dioxotetrahydropyrimidin-1(2H)-yl)phenyl)piperidin-4-yl)methyl)piperazin-1-yl)phenyl)-1H-pyrazolo[3,4-b]pyridin-3-yl)-2-methylphenyl)ethyl)-1,2,4-oxadiazole-3-carboxamide], for which it took 4.87 nM to reach half-maximal degradation (DC50).

For `Cc1cc(-c2n[nH]c3ncc(-c4ccc(N5CCN(CCc6ccc(C7CCC(=O)NC7=O)cc6)CC5)cn4)cc23)ccc1[C@@H](C)NC(=O)c1noc(C(C)(C)C)n1` (stereo partly drawn) [Example 116, 5-(tert-butyl)-N-((1R)-1-(4-(5-(5-(4-(4-(2,6-dioxopiperidin-3-yl)phenethyl)piperazin-1-yl)pyridin-2-yl)-1H-pyrazolo[3,4-b]pyridin-3-yl)-2-methylphenyl)ethyl)-1,2,4-oxadiazole-3-carboxamide], the DC50 was determined as 1.05 nM.

Molecule `Cc1cc(-c2n[nH]c3ncc(-c4ccc(C5CCN(CCc6ccc(C7CCC(=O)NC7=O)cc6)CC5)nc4)cc23)ccc1[C@@H](C)NC(=O)c1noc(C(C)(C)C)n1` (stereo partly drawn) [Example 117, 5-(tert-butyl)-N-((1R)-1-(4-(5-(6-(1-(4-(2,6-dioxopiperidin-3-yl)phenethyl)piperidin-4-yl)pyridin-3-yl)-1H-pyrazolo[3,4-b]pyridin-3-yl)-2-methylphenyl)ethyl)-1,2,4-oxadiazole-3-carboxamide] registered a DC50 of 3.5 nM.

`COc1cc(OCCCN2CCN(c3ccc(-c4cnc5[nH]nc(-c6ccc([C@@H](C)NC(=O)c7nc(C(C)(C)C)no7)c(C)c6)c5c4)cc3)CC2)ccc1N1CCC(=O)NC1=O` [Example 118, (R)-3-(tert-butyl)-N-(1-(4-(5-(4-(4-(3-(4-(2,4-dioxotetrahydropyrimidin-1(2H)-yl)-3-methoxyphenoxy)propyl)piperazin-1-yl)phenyl)-1H-pyrazolo[3,4-b]pyridin-3-yl)-2-methylphenyl)ethyl)-1,2,4-oxadiazole-5-carboxamide] displayed a DC50 of 8.07 nM.

On to `Cc1cc(-c2n[nH]c3ncc(-c4ccc(N5CCN(CCc6ccc(N7CCC(=O)NC7=O)c(C)c6)CC5)cc4)cc23)ccc1[C@@H](C)NC(=O)c1noc(C(C)(C)C)n1` [Example 119, (R)-5-(tert-butyl)-N-(1-(4-(5-(4-(4-(4-(2,4-dioxotetrahydropyrimidin-1(2H)-yl)-3-methylphenethyl)piperazin-1-yl)phenyl)-1H-pyrazolo[3,4-b]pyridin-3-yl)-2-methylphenyl)ethyl)-1,2,4-oxadiazole-3-carboxamide], for which half-maximal degradation (DC50) was put at 2.12 nM.
